Measured values reported in ChEMBL document CHEMBL1201862, “PubChem BioAssay data set” (2004).
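1) Cells in 96-well plates. 2) Compound, 48 h, 5 concentrations. 3) Linear interpolation between surrounding doses. 4) Unreached endpoint = highest concentration. At the GI50, growth is halved.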 Active and inactive are the calls of the source. Rule as the data show it: active = GI50 up to about 1.1 µM and inactive = higher.

Key:
Assay in all cases: growth of human tumour cells (NCI), 48 h
RXF 393 = system: RXF 393
SK-MEL-2 = system: SK-MEL-2
NCI-H460 = system: NCI-H460
KM12 = system: KM12
MDA-MB-435 = system: MDA-MB-435
HL-60 = system: HL-60
NCI/ADR-RES = system: NCI/ADR-RES
TK-10 = system: TK-10
MCF7 = system: MCF7
COLO 205 = system: COLO 205
OVCAR-5 = system: OVCAR-5
MDA-MB-231 = system: MDA-MB-231
MOLT-4 = system: MOLT-4
T47D = system: T47D
SR = system: SR
LOX IMVI = system: LOX IMVI
EKVX = system: EKVX
OVCAR-3 = system: OVCAR-3
Hs-578T = system: Hs-578T
HT-29 = system: HT-29
SNB-19 = system: SNB-19
SF-539 = system: SF-539
A549 = system: A549
HOP-92 = system: HOP-92
786-0 = system: 786-0
NCI-H23 = system: NCI-H23
UACC-257 = system: UACC-257
SNB-75 = system: SNB-75
SK-MEL-5 = system: SK-MEL-5
Malme-3M = system: Malme-3M
SF-268 = system: SF-268
CAKI-1 = system: CAKI-1
MDA-N = system: MDA-N
ACHN = system: ACHN
SW-620 = system: SW-620
UACC-62 = system: UACC-62
RPMI-8226 = system: RPMI-8226
IGROV-1 = system: IGROV-1
HCT-15 = system: HCT-15
PC-3 = system: PC-3
OVCAR-4 = system: OVCAR-4
BT-549 = system: BT-549
K562 = system: K562
NCI-H522 = system: NCI-H522
SK-MEL-28 = system: SK-MEL-28
SN12C = system: SN12C
SF-295 = system: SF-295
SK-OV-3 = system: SK-OV-3
OVCAR-8 = system: OVCAR-8
HCT-116 = system: HCT-116
CCRF-CEM = system: CCRF-CEM
M14 = system: M14
DU-145 = system: DU-145
NCI-H226 = system: NCI-H226
U-251 = system: U-251
HOP-62 = system: HOP-62
HCC 2998 = system: HCC 2998
A498 = system: A498
UO-31 = system: UO-31

SMILES: Cc1nn(C(=O)c2ccncc2)c2c1C(c1ccccc1O)SC(=N)N2 (stereo not given)
- GI50 (RXF 393): > 10 µM (inactive)
- GI50 (SK-MEL-2): > 10 µM (inactive)
- GI50 (NCI-H460): > 10 µM (inactive)
- GI50 (KM12): > 10 µM (inactive)
- GI50 (MDA-MB-435): > 10 µM (inactive)
- GI50 (HL-60): > 10 µM (inactive)
- GI50 (NCI/ADR-RES): > 10 µM (inactive)
- GI50 (TK-10): > 10 µM (inactive)
- GI50 (MCF7): > 10 µM (inactive)
- GI50 (COLO 205): > 10 µM (inactive)
- GI50 (OVCAR-5): > 10 µM (inactive)
- GI50 (MDA-MB-231): > 10 µM (inactive)
- GI50 (MOLT-4): > 10 µM (inactive)
- GI50 (T47D): > 10 µM (inactive)
- GI50 (SR): > 10 µM (inactive)
- GI50 (LOX IMVI): > 10 µM (inactive)
- GI50 (EKVX): > 10 µM (inactive)
- GI50 (OVCAR-3): > 10 µM (inactive)
- GI50 (Hs-578T): > 10 µM (inactive)
- GI50 (HT-29): > 10 µM (inactive)
- GI50 (SNB-19): > 10 µM (inactive)
- GI50 (SF-539): > 10 µM (inactive)
- GI50 (A549): > 10 µM (inactive)
- GI50 (HOP-92): > 10 µM (inactive)
- GI50 (786-0): > 10 µM (inactive)
- GI50 (NCI-H23): > 10 µM (inactive)
- GI50 (UACC-257): > 10 µM (inactive)
- GI50 (SNB-75): > 10 µM (inactive)
- GI50 (SK-MEL-5): > 10 µM (inactive)
- GI50 (Malme-3M): > 10 µM (inactive)
- GI50 (SF-268): > 10 µM (inactive)
- GI50 (CAKI-1): > 10 µM (inactive)
- GI50 (MDA-N): > 10 µM (inactive)
- GI50 (ACHN): > 10 µM (inactive)
- GI50 (SW-620): > 10 µM (inactive)
- GI50 (UACC-62): > 10 µM (inactive)
- GI50 (RPMI-8226): > 10 µM (inactive)
- GI50 (IGROV-1): > 10 µM (inactive)
- GI50 (HCT-15): > 10 µM
- GI50 (PC-3): > 10 µM (inactive)
- GI50 (OVCAR-4): > 10 µM (inactive)
- GI50 (BT-549): > 10 µM (inactive)
- GI50 (K562): > 10 µM (inactive)
- GI50 (NCI-H522): > 10 µM (inactive)
- GI50 (SK-MEL-28): > 10 µM (inactive)
- GI50 (SN12C): > 10 µM (inactive)
- GI50 (SF-295): > 10 µM (inactive)
- GI50 (SK-OV-3): > 10 µM (inactive)
- GI50 (OVCAR-8): > 10 µM (inactive)
- GI50 (HCT-116): > 10 µM (inactive)
- GI50 (CCRF-CEM): > 10 µM (inactive)
- GI50 (M14): > 10 µM (inactive)
- GI50 (DU-145): > 10 µM (inactive)
- GI50 (NCI-H226): > 10 µM (inactive)
- GI50 (U-251): > 10 µM (inactive)
- GI50 (HOP-62): > 10 µM (inactive)
- GI50 (HCC 2998): > 10 µM (inactive)

SMILES: N#Cc1c(-c2ccc(Cl)cc2)cc(-c2nc3ccccc3[nH]2)nc1N
- GI50 (SK-MEL-2): 12.6 µM (inactive)
- GI50 (NCI-H460): 7.19 µM (inactive)
- GI50 (KM12): 10 µM (inactive)
- GI50 (MDA-MB-435): 5.43 µM (inactive)
- GI50 (HL-60): 11.2 µM (inactive)
- GI50 (NCI/ADR-RES): 15 µM (inactive)
- GI50 (TK-10): 10.1 µM (inactive)
- GI50 (MCF7): 3.49 µM (inactive)
- GI50 (COLO 205): 4.3 µM (inactive)
- GI50 (OVCAR-5): 19.5 µM (inactive)
- GI50 (MDA-MB-231): 12.2 µM (inactive)
- GI50 (MOLT-4): 2.92 µM (inactive)
- GI50 (T47D): 3.12 µM (inactive)
- GI50 (A498): 8.85 µM (inactive)
- GI50 (SR): 4.56 µM (inactive)
- GI50 (LOX IMVI): 10.2 µM (inactive)
- GI50 (EKVX): 11 µM (inactive)
- GI50 (OVCAR-3): 12.5 µM (inactive)
- GI50 (Hs-578T): 16.5 µM (inactive)
- GI50 (HT-29): 9.16 µM (inactive)
- GI50 (SNB-19): 12.1 µM (inactive)
- GI50 (SF-539): 15.3 µM (inactive)
- GI50 (A549): 5.92 µM (inactive)
- GI50 (HOP-92): 11 µM (inactive)
- GI50 (786-0): 11.3 µM (inactive)
- GI50 (NCI-H23): 14.2 µM (inactive)
- GI50 (UACC-257): 5.14 µM (inactive)
- GI50 (SNB-75): 10.8 µM (inactive)
- GI50 (SK-MEL-5): 6.67 µM (inactive)
- GI50 (Malme-3M): 16.6 µM (inactive)
- GI50 (SF-268): 7.98 µM (inactive)
- GI50 (CAKI-1): 17.9 µM (inactive)
- GI50 (MDA-N): 6.49 µM (inactive)
- GI50 (ACHN): 11.1 µM (inactive)
- GI50 (SW-620): 15 µM (inactive)
- GI50 (UO-31): 9.1 µM (inactive)
- GI50 (UACC-62): 7.66 µM (inactive)
- GI50 (RPMI-8226): 4.22 µM (inactive)
- GI50 (IGROV-1): 2.39 µM (inactive)
- GI50 (HCT-15): 10.9 µM
- GI50 (PC-3): 11 µM (inactive)
- GI50 (OVCAR-4): 18.6 µM (inactive)
- GI50 (BT-549): 14.4 µM (inactive)
- GI50 (K562): 6.71 µM (inactive)
- GI50 (NCI-H522): 13.7 µM (inactive)
- GI50 (SK-MEL-28): 12.2 µM (inactive)
- GI50 (SN12C): 13.4 µM (inactive)
- GI50 (SF-295): 10.7 µM (inactive)
- GI50 (SK-OV-3): 19.5 µM (inactive)
- GI50 (OVCAR-8): 13 µM (inactive)
- GI50 (HCT-116): 10.3 µM (inactive)
- GI50 (CCRF-CEM): 5.57 µM (inactive)
- GI50 (M14): 4.32 µM (inactive)
- GI50 (DU-145): 6.98 µM (inactive)
- GI50 (NCI-H226): 10.8 µM (inactive)
- GI50 (HOP-62): 14.4 µM (inactive)
- GI50 (HCC 2998): 4.02 µM (inactive)

SMILES: Cc1nc2ccccc2c(=O)n1/N=C/c1ccc(N(C)C)cc1
- GI50 (SK-MEL-2): > 100 µM (inactive)
- GI50 (NCI-H460): > 100 µM (inactive)
- GI50 (KM12): > 100 µM (inactive)
- GI50 (MDA-MB-435): > 100 µM (inactive)
- GI50 (HL-60): > 100 µM (inactive)
- GI50 (NCI/ADR-RES): 86.9 µM (inactive)
- GI50 (TK-10): > 100 µM (inactive)
- GI50 (MCF7): > 100 µM (inactive)
- GI50 (COLO 205): > 100 µM (inactive)
- GI50 (OVCAR-5): > 100 µM (inactive)
- GI50 (MDA-MB-231): 32.9 µM (inactive)
- GI50 (MOLT-4): > 100 µM (inactive)
- GI50 (T47D): > 100 µM (inactive)
- GI50 (A498): > 100 µM (inactive)
- GI50 (SR): > 100 µM (inactive)
- GI50 (LOX IMVI): > 100 µM (inactive)
- GI50 (EKVX): > 100 µM (inactive)
- GI50 (OVCAR-3): > 100 µM (inactive)
- GI50 (Hs-578T): 15.3 µM (inactive)
- GI50 (HT-29): > 100 µM (inactive)
- GI50 (SNB-19): 24.8 µM (inactive)
- GI50 (SF-539): > 100 µM (inactive)
- GI50 (A549): > 100 µM (inactive)
- GI50 (HOP-92): 48.5 µM (inactive)
- GI50 (786-0): 71.4 µM (inactive)
- GI50 (NCI-H23): 78 µM (inactive)
- GI50 (UACC-257): > 100 µM (inactive)
- GI50 (SNB-75): 15.4 µM (inactive)
- GI50 (SK-MEL-5): > 100 µM (inactive)
- GI50 (Malme-3M): > 100 µM (inactive)
- GI50 (SF-268): 33.7 µM (inactive)
- GI50 (CAKI-1): > 100 µM (inactive)
- GI50 (MDA-N): > 100 µM (inactive)
- GI50 (ACHN): > 100 µM (inactive)
- GI50 (SW-620): > 100 µM (inactive)
- GI50 (UACC-62): 71.8 µM (inactive)
- GI50 (RPMI-8226): 4.24 µM (inactive)
- GI50 (IGROV-1): > 100 µM (inactive)
- GI50 (HCT-15): > 100 µM
- GI50 (PC-3): > 100 µM (inactive)
- GI50 (OVCAR-4): > 100 µM (inactive)
- GI50 (BT-549): 46 µM (inactive)
- GI50 (NCI-H522): 15.6 µM (inactive)
- GI50 (SK-MEL-28): > 100 µM (inactive)
- GI50 (SN12C): > 100 µM (inactive)
- GI50 (SF-295): 43.6 µM (inactive)
- GI50 (SK-OV-3): 83.6 µM (inactive)
- GI50 (OVCAR-8): 53.5 µM (inactive)
- GI50 (HCT-116): > 100 µM (inactive)
- GI50 (CCRF-CEM): > 100 µM (inactive)
- GI50 (M14): > 100 µM (inactive)
- GI50 (DU-145): > 100 µM (inactive)
- GI50 (NCI-H226): > 100 µM (inactive)
- GI50 (U-251): 45 µM (inactive)
- GI50 (HOP-62): 34.2 µM (inactive)
- GI50 (HCC 2998): > 100 µM (inactive)
